# Reference: patent US5061794A, “Cephalosporin derivatives, and antibacterial agents” (priority 1986, dated 1991)
# Where two headings read alike, the source gives them in different places.
# Experiments:
# A. calcoaceticus No. 4 = test: in vitro antibacterial activity, agar plate dilution method (MIC); type: cell-based, Acinetobacter calcoaceticus; conditions: Acinetobacter calcoaceticus, NO.4, 16 h, 10^6 CFU/ml
# How it was run: (§1)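 Overnight Mueller Hinton broth cultures were inoculated onto Mueller Hinton agar containing serial antibiotic concentrations at 10^6 CFU/ml. Plates were incubated at 37° C. for 16 hours, and MIC (μg/ml) was recorded.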
# K. pneumoniae No. 42 = test: as above; type: cell-based; conditions: Klebsiella pneumoniae, 10^6 CFU/ml
# How it was run: as §1
# S. marcescens No. 16-2 = test: as above; type: cell-based; conditions: Serratia marcescens, NO.162, 16 h, 10^6 CFU/ml
# How it was run: as §1
# K. oxytoca GN10650 = test: as above; type: cell-based; conditions: Klebsiella oxytoca, 10^6 CFU/ml
# How it was run: as §1
# P. vulgaris No. 33 = test: as above; type: cell-based; conditions: Proteus vulgaris, NO.33, 16 h, read-out: Minimum Inhibitory Concentration (MIC), *P. vulgaris No. 33, lactamase-producing strain; 10^6 CFU/ml
# How it was run: as §1
# P. vulgaris HX-19 = test: as above; type: cell-based; conditions: Proteus vulgaris, HX19, 16 h, P. vulgaris HX-19; 10^6 CFU/ml; read-out: Minimum Inhibitory Concentration (MIC)
# How it was run: as §1
# S. aureus 209P NIHJ-JC1 = test: as above; type: cell-based; conditions: Staphylococcus aureus, 16 h, read-out: Minimum Inhibitory Concentration (MIC), S. aureus 209P NIHJ-JC1; 10^6 CFU/ml, 37° C., 16 hours
# How it was run: as §1
# S. marcescens IAM 1184 = test: as above; type: cell-based; conditions: Serratia marcescens, IAM1184, 16 h, read-out: Minimum Inhibitory Concentration (MIC)
# How it was run: as §1
# K. pneumoniae PCI-602 = test: as above; type: cell-based; conditions: Klebsiella pneumoniae, PCI602, 16 h, 10^6 CFU/ml
# How it was run: as §1
# E. coli NIHJ JC2 = test: as above; type: cell-based; conditions: Escherichia coli, NIHJJC2, 16 h, read-out: Minimum Inhibitory Concentration (MIC), E. coli NIHJ JC2, 10^6 CFU/ml, 37° C.
# How it was run: as §1
# E. coli GN5482 = test: as above; type: cell-based; conditions: Escherichia coli, GN5482, 16 h
# How it was run: as §1
# M. morganii GN5407 = test: as above; type: cell-based; conditions: Morganella morganii, GN5407, 16 h, read-out: Minimum Inhibitory Concentration (MIC), *M. morganii GN5407, lactamase-producing strain; 10^6 CFU/ml
# How it was run: as §1
# E. cloacae 963 = test: as above; type: cell-based; conditions: 10^6 CFU/ml
# How it was run: as §1
# E. cloacae Nek 39 = test: as above; type: cell-based; conditions: Enterobacter cloacae, NEK39, 16 h, read-out: Minimum Inhibitory Concentration (MIC), *E. cloacae Nek 39, lactamase-producing strain; 10^6 CFU/ml
# How it was run: as §1
# Ps. cepacia 23 = test: as above; type: cell-based, Pseudomonas cepacia; conditions: read-out: Minimum Inhibitory Concentration (MIC)
# How it was run: as §1
# Ps. aeruginosa AKR17 = test: as above; type: cell-based, Pseudomonas aeruginosa; conditions: Pseudomonas aeruginosa, 16 h; Ps. aeruginosa AKR17; 10^6 CFU/ml; read-out: Minimum Inhibitory Concentration (MIC)
# How it was run: as §1
# Ps. aeruginosa AK 109 = test: as above; type: cell-based, Pseudomonas aeruginosa; conditions: Pseudomonas aeruginosa, AK109, 16 h, 10^6 CFU/ml
# How it was run: as §1
# Ps. aeruginosa IF03445 = test: as above; type: cell-based, Pseudomonas aeruginosa; conditions: Pseudomonas aeruginosa, 10^6 CFU/ml
# How it was run: as §1
# E. coli CSH(RE45) = test: microbe, parasite or virus in culture; type: cell-based; conditions: Escherichia coli, 16 h, read-out: Minimum Inhibitory Concentration (MIC), *E. coli CSH(RE45), lactamase-producing strain; 10^6 CFU/ml
# How it was run: as §1
# E. coli CSH2 (RK1) = test: microbe, parasite or virus in culture; type: cell-based; conditions: Escherichia coli, 16 h, read-out: Minimum Inhibitory Concentration (MIC), *E. coli CSH2 (RK1), lactamase-producing strain; 10^6 CFU/ml
# How it was run: as §1
# [1] = read-out: Minimum Inhibitory Concentration (MIC), A. calcoaceticus No. 4
# [2] = NO.42, 16 h, read-out: Minimum Inhibitory Concentration (MIC), *K. pneumoniae No. 42, lactamase-producing strain
# [3] = read-out: Minimum Inhibitory Concentration (MIC), *S. marcescens No. 16-2, lactamase-producing strain
# [4] = GN10650, 16 h, read-out: Minimum Inhibitory Concentration (MIC), *K. oxytoca GN10650, lactamase-producing strain
# [5] = S. marcescens IAM 1184, 10^6 CFU/ml
# [6] = read-out: Minimum Inhibitory Concentration (MIC), K. pneumoniae PCI-602
# [7] = Enterobacter cloacae, 16 h, E. cloacae 963, read-out: Minimum Inhibitory Concentration (MIC)
# [8] = Burkholderia cepacia, 16 h, Ps. cepacia 23, 10^6 CFU/ml
# [9] = Ps. aeruginosa AK 109, read-out: Minimum Inhibitory Concentration (MIC)
# [10] = 16 h, Ps. aeruginosa IF03445, read-out: Minimum Inhibitory Concentration (MIC)
# [11] = read-out: Minimum Inhibitory Concentration (MIC), *E. coli GN5482, lactamase-producing strain, 10^6 CFU/ml
Structure (SMILES),MIC (A. calcoaceticus No. 4; [1]),MIC (K. pneumoniae No. 42; [2]),MIC (S. marcescens No. 16-2; [3]),MIC (K. oxytoca GN10650; [4]),MIC (P. vulgaris No. 33),MIC (P. vulgaris HX-19),MIC (S. aureus 209P NIHJ-JC1),MIC (S. marcescens IAM 1184; [5]),MIC (K. pneumoniae PCI-602; [6]),MIC (E. coli NIHJ JC2),MIC (M. morganii GN5407),MIC (E. cloacae 963; [7]),MIC (E. cloacae Nek 39),MIC (Ps. cepacia 23; [8]),MIC (Ps. aeruginosa AKR17),MIC (Ps. aeruginosa AK 109; [9]),MIC (Ps. aeruginosa IF03445; [10]),MIC (E. coli CSH(RE45)),MIC (E. coli CSH2 (RK1)),MIC (E. coli GN5482; [11]),other results
"C=CCO/N=C(\C(=O)N[C@@H]1C(=O)N2C(C(=O)O)=C(CSc3nnc(-c4ccc(O)c(O)c4)o3)CS[C@H]12)c1csc(N)n1 [Ex. 8, sodium 7β-[2-allyloxyimino-2-(2-aminothiazol-4-yl)acetamido]-3-[5-(3,4-dihydroxyphenyl)-1,3,4-oxadiazol-2-yl]thiomethyl-3-cephem-4carboxylate]",0.1 mg/L,0.05 mg/L,1.56 mg/L,3.12 mg/L,0.0125 mg/L,< 0.006 mg/L,0.78 mg/L,0.0125 mg/L,< 0.006 mg/L,0.1 mg/L,0.0125 mg/L,< 0.006 mg/L,0.05 mg/L,0.025 mg/L,100 mg/L,0.2 mg/L,0.2 mg/L,0.78 mg/L,< 0.006 mg/L,,MIC (E. coli GN5482; read-out: Minimum Inhibitory Concentration (MIC)): 0.39 mg/L
"CO/N=C(\C(=O)N[C@@H]1C(=O)N2C(C(=O)O)=C(CSc3nnc(-c4ccc(O)cc4)o3)CS[C@H]12)c1csc(N)n1 [compound 2, reference compound]",,,,,0.78 mg/L,< 0.006 mg/L,0.78 mg/L,,,0.78 mg/L,0.78 mg/L,1.56 mg/L,6.25 mg/L,,> 100 mg/L,50 mg/L,100 mg/L,0.39 mg/L,0.78 mg/L,0.78 mg/L,"MIC (A. calcoaceticus No. 4; A. calcoaceticus No. 4, read-out: Minimum Inhibitory Concentration (MIC)): 50 mg/L; MIC (K. pneumoniae No. 42; 16 h, *K. pneumoniae No. 42, lactamase-producing strain, read-out: Minimum Inhibitory Concentration (MIC)): 1.56 mg/L; MIC (S. marcescens No. 16-2; *S. marcescens No. 16-2, lactamase-producing strain, read-out: Minimum Inhibitory Concentration (MIC)): 25 mg/L; MIC (K. oxytoca GN10650; 16 h, *K. oxytoca GN10650, lactamase-producing strain, read-out: Minimum Inhibitory Concentration (MIC)): 25 mg/L; MIC (S. marcescens IAM 1184): 0.78 mg/L; MIC (K. pneumoniae PCI-602; K. pneumoniae PCI-602, read-out: Minimum Inhibitory Concentration (MIC)): 0.0125 mg/L; MIC (Ps. cepacia 23; Burkholderia cepacia, 23, 16 h): 12.5 mg/L"
"C=CCON=C(C(=O)NC1C(=O)N2C(C(=O)O)=C(CSc3nc(-c4ccc(O)c(O)c4)cs3)CSC12)c1csc(N)n1 (stereo not drawn) [Ex. 42, sodium 78-[2-allyloxyimino-2-(2-aminothiazol-4-yl)acetamido]-3-[4-(3,4-dihydroxyphenyl)-thiazol-2-yl]thiomethyl-3-cephem-4-carboxylate]",0.39 mg/L,0.2 mg/L,6.25 mg/L,3.12 mg/L,0.05 mg/L,0.0125 mg/L,0.78 mg/L,0.05 mg/L,< 0.006 mg/L,0.2 mg/L,0.05 mg/L,,0.39 mg/L,0.1 mg/L,100 mg/L,,,0.025 mg/L,0.025 mg/L,0.78 mg/L,"MIC (E. cloacae 963; Enterobacter cloacae, 963, 16 h, read-out: Minimum Inhibitory Concentration (MIC), E. cloacae 963): 0.05 mg/L; MIC (Ps. aeruginosa AK 109; read-out: Minimum Inhibitory Concentration (MIC), Ps. aeruginosa AK 109): 0.78 mg/L; MIC (Ps. aeruginosa IF03445; IF03445, 16 h, read-out: Minimum Inhibitory Concentration (MIC), Ps. aeruginosa IF03445): 0.78 mg/L"
